Data: US20120283303A1, “USE OF N-AMINOIMIDAZOLE CYTOPROTECTIVE COMPOUNDS FOR TREATING CELL DEATH AND/OR GSK-3 MEDIATED DISEASES” (K.U.LEUVEN RESEARCH AND DEVELOPMENT, priority 2006, published 2012)

Key:
P/CAF (H3 peptide) = target: T1, P/CAF (H3 peptide) (Homo sapiens, UniProt Q92831); test: Radiometric enzyme activity assay, P/CAF (H3 peptide); type: biochemical; conditions: 5 μg/ml NR-818, 10 μM ATP
T1 construct: purchased Upstate Biotechnology
Description: (§1) GSK-3 were assayed for their ability to phosphorylate the appropriate peptide/protein substrate in the presence of 5 μg/ml NR-818 and 10 μM ATP. Using the direct radiometric approach, kinase activities were determined and expressed as % activity compared to the untreated control (Upstate Biotechnology, Lake Placid, N.Y.). Activities are given as the mean of duplicate determinations relative to control incubations in which the inhibitor was substituted with DMSO. In the following table 1 providing results for NR818, the following abbreviations are used: • CDK, cyclin-dependent kinase; • CK, casein kinase; • eEF-2K, eukaryotic elongation factor-2 kinase; • JNK, c-Jun N-terminal kinase; • MAPK, mitogen-activated protein kinase; • PKC, protein kinase C; and • PI 3-kinase, phosphatidylinositol 3-kinase.

P/CAF (H4 peptide) = target: T2, P/CAF (H4 peptide) (Homo sapiens, UniProt Q92831); test: Radiometric enzyme activity assay, P/CAF (H4 peptide); type: biochemical; conditions: 5 μg/ml NR-818, 10 μM ATP
T2 construct: purchased Upstate Biotechnology
Description: as §1

CDK1/cyclinB = target: T3, CDK1/cyclinB (Homo sapiens, UniProt P06493); test: Radiometric kinase activity assay; type: biochemical; conditions: 5 μg/ml NR-818, 10 μM ATP
T3 construct: purchased Upstate Biotechnology
Description: as §1

CDK2/cyclinA = target: T4, CDK2/cyclinA (Homo sapiens, UniProt P24941); test: Radiometric kinase activity assay; type: biochemical; conditions: 5 μg/ml NR-818, 10 μM ATP
T4 construct: purchased Upstate Biotechnology
Description: as §1

CDK2/cyclinE = target: T5, CDK2/cyclinE (Homo sapiens, UniProt P24941); test: Radiometric kinase activity assay; type: biochemical; conditions: 5 μg/ml NR-818, 10 μM ATP
T5 construct: purchased Upstate Biotechnology
Description: as §1

CDK3/cyclinE = target: T6, CDK3/cyclinE (Homo sapiens, UniProt Q00526); test: Radiometric kinase activity assay; type: biochemical; conditions: 5 μg/ml NR-818, 10 μM ATP
T6 construct: purchased Upstate Biotechnology
Description: as §1

CDK5/p25 = target: T7, CDK5/p25 (Homo sapiens, UniProt Q00535); test: Radiometric kinase activity assay; type: biochemical; conditions: 5 μg/ml NR-818, 10 μM ATP
T7 construct: purchased Upstate Biotechnology
Description: as §1

CDK5/p35 = target: T8, CDK5/p35 (Homo sapiens, UniProt Q00535); test: Radiometric kinase activity assay; type: biochemical; conditions: 5 μg/ml NR-818, 10 μM ATP
T8 construct: purchased Upstate Biotechnology
Description: as §1

CDK6/cyclinD3 = target: T9, CDK6/cyclinD3 (Homo sapiens, UniProt Q00534); test: Radiometric kinase activity assay; type: biochemical; conditions: 5 μg/ml NR-818, 10 μM ATP
T9 construct: purchased Upstate Biotechnology
Description: as §1

CDK7/cyclinH = target: T10, CDK7/cyclinH (Homo sapiens, UniProt P50613); test: Radiometric kinase activity assay; type: biochemical; conditions: 5 μg/ml NR-818, 10 μM ATP
T10 construct: purchased Upstate Biotechnology
Description: as §1

CDK9/cyclinT1 = target: T11, CDK9/cyclinT1 (Homo sapiens, UniProt P50750); test: Radiometric kinase activity assay; type: biochemical; conditions: 5 μg/ml NR-818, 10 μM ATP
T11 construct: purchased Upstate Biotechnology
Description: as §1

CK1 = test: Radiometric kinase activity assay; type: biochemical; conditions: 5 μg/ml NR-818, 10 μM ATP
Description: as §1

CK2 = target: T12, CK2 (Homo sapiens, UniProt P68400); test: Radiometric kinase activity assay; type: biochemical; conditions: 5 μg/ml NR-818, 10 μM ATP
T12 construct: purchased Upstate Biotechnology
Description: as §1

JNK1α1 = target: T13, JNK1α1 (Homo sapiens, UniProt P45983); test: Radiometric kinase activity assay; type: biochemical; conditions: 5 μg/ml NR-818, 10 μM ATP
T13 construct: purchased Upstate Biotechnology
Description: as §1

JNK2α2 = target: T14, JNK2α2 (Homo sapiens, UniProt P45984); test: Radiometric kinase activity assay; type: biochemical; conditions: 5 μg/ml NR-818, 10 μM ATP
T14 construct: purchased Upstate Biotechnology
Description: as §1

MAPK1 = target: T15, MAPK1 (Homo sapiens, UniProt P27361); test: Radiometric kinase activity assay; type: biochemical; conditions: 5 μg/ml NR-818, 10 μM ATP
T15 construct: purchased Upstate Biotechnology
Description: as §1

MAPK2 = target: T16, MAPK2 (Homo sapiens, UniProt P28482); test: Radiometric kinase activity assay; type: biochemical; conditions: 5 μg/ml NR-818, 10 μM ATP
T16 construct: purchased Upstate Biotechnology
Description: as §1

PI 3-kinaseβ = target: T17, PI 3-kinaseβ (Homo sapiens, UniProt P42338); test: Radiometric kinase activity assay; type: biochemical; conditions: 5 μg/ml NR-818, 10 μM ATP
T17 construct: purchased Upstate Biotechnology
Description: as §1

PI 3-kinaseγ = target: T18, PI 3-kinaseγ (Homo sapiens, UniProt P48736); test: Radiometric kinase activity assay; type: biochemical; conditions: 5 μg/ml NR-818, 10 μM ATP
T18 construct: purchased Upstate Biotechnology
Description: as §1

PI 3-kinaseδ = target: T19, PI 3-kinaseδ (Homo sapiens, UniProt O00329); test: Radiometric kinase activity assay; type: biochemical; conditions: 5 μg/ml NR-818, 10 μM ATP
T19 construct: purchased Upstate Biotechnology, Lake Placid, N.Y
Description: as §1

PKCζ = target: T20, PKCζ (Homo sapiens, UniProt Q05513); test: Radiometric kinase activity assay; type: biochemical; conditions: 5 μg/ml NR-818, 10 μM ATP
T20 construct: purchased Upstate Biotechnology
Description: as §1

eEF-2K = target: T21, eEF-2K (Homo sapiens, UniProt O00418); test: Radiometric kinase activity assay; type: biochemical; conditions: 5 μg/ml NR-818, 10 μM ATP
T21 construct: purchased Upstate Biotechnology
Description: as §1

[1] = test system: Peripheral blood mononuclear cells (PBMCs); test: PBMC survival (viable cell count, trypan blue exclusion); type: cell-based, human
Description: Peripheral blood mononuclear cells (PBMCs) from healthy donors were isolated by density centrifugation (Lymphoprep; Nycomed Pharma, AS Diagnostics, Oslo, Norway). For the “non-stimulated” conditions (NS) the cells were cultivated at a density of 1,750,000 cells per ml in RPMI-1640 supplemented with 2 mM L-glutamine, 15% FCS and 0.1% NaHCO3 for 3 days. […] At day 0 of the experiment, the NS and activated cells (PHA-stimulated blasts) were washed with PBS and were pelleted by centrifugation. […] The number of viable cells was counted based on the trypan blue exclusion method. The evolution of the number of cells was followed over a period of approximately 2 weeks.

[2] = Diabetic mouse glucose tolerance test; type: in vivo, mice; conditions: subcutaneously, 30 mg/kg
From the text: NR818 is formulated and tested in the diabetic mouse glucose tolerance test as described in example 269 of U.S. Pat. No. 6,489,344.

T13 sequence (P45983 1-384 isoform P45983-2): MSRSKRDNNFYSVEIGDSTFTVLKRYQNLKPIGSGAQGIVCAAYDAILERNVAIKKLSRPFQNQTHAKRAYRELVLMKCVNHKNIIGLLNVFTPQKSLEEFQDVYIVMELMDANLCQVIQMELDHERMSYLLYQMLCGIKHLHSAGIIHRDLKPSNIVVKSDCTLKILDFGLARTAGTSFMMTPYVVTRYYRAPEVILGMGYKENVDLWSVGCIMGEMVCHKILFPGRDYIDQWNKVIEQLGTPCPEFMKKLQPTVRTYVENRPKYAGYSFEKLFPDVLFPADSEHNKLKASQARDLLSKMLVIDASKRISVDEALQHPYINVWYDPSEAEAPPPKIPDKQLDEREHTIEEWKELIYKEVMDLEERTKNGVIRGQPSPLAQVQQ
T9 sequence (Q00534 whole entry): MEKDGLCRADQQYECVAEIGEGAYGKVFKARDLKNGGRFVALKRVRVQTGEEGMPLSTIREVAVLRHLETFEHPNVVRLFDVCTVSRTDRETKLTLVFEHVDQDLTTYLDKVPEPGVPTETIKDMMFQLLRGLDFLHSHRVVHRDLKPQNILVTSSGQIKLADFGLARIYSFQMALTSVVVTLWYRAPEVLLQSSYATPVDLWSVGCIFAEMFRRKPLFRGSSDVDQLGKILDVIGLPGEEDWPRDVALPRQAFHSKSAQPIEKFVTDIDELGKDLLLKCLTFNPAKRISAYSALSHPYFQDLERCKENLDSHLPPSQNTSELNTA
T9 sequence (P30281 whole entry partner): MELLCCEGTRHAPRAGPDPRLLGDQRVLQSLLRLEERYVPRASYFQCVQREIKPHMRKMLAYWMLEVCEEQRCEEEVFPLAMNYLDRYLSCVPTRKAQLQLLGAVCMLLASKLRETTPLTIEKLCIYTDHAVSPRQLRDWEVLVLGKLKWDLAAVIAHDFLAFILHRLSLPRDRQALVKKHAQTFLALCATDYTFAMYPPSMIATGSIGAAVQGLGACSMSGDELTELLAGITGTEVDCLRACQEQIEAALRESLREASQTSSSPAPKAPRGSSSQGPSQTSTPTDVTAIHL
T19 sequence (O00329 whole entry): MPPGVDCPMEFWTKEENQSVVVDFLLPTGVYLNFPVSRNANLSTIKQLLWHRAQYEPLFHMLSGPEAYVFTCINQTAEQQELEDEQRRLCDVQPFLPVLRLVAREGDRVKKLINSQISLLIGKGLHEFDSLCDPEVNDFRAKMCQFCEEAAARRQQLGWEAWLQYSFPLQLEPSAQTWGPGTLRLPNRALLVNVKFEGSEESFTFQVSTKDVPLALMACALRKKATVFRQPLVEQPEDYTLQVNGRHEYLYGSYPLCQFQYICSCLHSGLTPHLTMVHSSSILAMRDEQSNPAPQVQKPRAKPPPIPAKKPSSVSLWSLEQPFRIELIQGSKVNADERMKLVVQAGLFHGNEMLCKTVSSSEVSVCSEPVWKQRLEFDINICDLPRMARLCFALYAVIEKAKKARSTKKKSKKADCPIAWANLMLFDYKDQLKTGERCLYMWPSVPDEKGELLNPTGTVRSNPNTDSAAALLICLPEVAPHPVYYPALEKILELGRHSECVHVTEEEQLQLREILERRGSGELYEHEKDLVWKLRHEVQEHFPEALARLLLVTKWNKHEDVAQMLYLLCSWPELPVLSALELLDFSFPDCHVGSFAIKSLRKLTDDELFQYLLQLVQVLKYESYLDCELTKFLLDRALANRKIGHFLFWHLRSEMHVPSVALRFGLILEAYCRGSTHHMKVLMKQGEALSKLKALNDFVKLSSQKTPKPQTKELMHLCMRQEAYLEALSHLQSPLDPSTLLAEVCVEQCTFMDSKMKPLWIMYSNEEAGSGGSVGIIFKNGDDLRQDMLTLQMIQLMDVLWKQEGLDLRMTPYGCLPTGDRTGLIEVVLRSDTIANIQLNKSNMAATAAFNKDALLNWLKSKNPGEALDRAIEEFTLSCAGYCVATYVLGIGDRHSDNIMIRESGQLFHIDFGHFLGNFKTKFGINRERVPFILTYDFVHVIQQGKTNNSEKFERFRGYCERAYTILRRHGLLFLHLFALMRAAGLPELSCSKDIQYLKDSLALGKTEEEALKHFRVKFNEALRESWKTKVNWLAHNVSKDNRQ
T19 sequence (P27986 whole entry partner): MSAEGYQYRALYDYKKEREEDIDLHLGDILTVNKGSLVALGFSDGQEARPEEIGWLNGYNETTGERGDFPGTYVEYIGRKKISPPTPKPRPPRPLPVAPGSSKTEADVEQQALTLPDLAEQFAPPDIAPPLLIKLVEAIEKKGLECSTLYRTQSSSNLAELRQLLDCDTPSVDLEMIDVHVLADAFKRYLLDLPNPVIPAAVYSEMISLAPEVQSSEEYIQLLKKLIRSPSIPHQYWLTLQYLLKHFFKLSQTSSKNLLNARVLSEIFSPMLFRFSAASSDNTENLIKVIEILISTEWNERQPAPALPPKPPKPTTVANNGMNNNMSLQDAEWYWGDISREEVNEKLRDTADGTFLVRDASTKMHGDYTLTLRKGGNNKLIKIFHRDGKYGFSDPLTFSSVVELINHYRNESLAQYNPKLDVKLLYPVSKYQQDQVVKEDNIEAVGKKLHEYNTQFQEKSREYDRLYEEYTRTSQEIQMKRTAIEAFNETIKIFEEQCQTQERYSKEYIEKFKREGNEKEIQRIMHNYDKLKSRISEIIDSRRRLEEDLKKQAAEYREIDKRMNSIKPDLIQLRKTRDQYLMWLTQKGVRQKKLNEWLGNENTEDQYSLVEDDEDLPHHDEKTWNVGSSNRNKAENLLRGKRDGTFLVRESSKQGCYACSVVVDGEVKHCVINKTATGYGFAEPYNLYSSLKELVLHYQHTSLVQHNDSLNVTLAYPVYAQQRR
T16 sequence (P28482 whole entry): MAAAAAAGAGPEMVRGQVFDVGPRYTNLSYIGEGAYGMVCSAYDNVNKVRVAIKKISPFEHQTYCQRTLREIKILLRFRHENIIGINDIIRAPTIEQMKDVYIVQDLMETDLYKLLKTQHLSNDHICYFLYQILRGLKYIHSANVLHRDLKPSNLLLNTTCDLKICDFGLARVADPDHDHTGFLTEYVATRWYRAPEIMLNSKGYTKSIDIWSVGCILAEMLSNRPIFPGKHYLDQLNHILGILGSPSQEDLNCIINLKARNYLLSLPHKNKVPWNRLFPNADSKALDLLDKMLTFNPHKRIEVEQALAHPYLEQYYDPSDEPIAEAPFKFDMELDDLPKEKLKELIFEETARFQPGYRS
T18 sequence (P48736 whole entry): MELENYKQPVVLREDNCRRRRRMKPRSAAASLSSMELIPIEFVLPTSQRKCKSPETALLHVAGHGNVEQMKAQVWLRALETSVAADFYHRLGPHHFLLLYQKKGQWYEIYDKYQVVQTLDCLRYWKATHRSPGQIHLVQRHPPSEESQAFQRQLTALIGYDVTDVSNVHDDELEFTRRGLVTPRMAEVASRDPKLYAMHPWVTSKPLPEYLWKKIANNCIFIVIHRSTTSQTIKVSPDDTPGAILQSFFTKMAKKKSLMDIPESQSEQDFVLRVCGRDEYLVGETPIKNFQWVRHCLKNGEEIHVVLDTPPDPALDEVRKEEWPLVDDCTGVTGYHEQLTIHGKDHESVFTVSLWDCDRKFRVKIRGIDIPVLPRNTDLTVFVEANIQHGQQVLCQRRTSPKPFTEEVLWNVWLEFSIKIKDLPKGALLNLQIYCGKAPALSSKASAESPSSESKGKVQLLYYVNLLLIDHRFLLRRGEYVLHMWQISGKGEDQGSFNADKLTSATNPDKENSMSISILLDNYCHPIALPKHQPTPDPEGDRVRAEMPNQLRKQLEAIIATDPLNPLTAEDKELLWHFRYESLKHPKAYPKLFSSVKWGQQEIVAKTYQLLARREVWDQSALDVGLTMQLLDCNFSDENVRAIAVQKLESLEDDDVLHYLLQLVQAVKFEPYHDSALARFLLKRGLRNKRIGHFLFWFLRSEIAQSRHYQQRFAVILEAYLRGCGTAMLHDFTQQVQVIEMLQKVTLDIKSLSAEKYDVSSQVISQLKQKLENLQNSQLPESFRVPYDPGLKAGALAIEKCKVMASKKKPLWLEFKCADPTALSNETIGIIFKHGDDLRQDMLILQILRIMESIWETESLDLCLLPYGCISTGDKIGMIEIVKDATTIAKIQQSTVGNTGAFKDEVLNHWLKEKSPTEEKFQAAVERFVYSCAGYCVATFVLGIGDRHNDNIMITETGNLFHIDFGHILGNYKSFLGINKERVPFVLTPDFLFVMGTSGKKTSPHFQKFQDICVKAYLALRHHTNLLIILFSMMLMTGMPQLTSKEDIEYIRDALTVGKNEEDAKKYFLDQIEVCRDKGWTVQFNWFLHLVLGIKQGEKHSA
T3 sequence (P06493 whole entry): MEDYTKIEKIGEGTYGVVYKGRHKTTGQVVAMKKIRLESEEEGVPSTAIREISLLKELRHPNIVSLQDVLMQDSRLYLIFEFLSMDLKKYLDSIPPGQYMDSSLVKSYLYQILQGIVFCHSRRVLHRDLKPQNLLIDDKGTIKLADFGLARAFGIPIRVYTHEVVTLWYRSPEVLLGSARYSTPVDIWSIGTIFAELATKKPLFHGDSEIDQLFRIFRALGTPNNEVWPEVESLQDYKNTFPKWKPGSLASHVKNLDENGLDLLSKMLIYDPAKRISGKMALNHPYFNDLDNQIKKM
T3 sequence (P14635 whole entry partner): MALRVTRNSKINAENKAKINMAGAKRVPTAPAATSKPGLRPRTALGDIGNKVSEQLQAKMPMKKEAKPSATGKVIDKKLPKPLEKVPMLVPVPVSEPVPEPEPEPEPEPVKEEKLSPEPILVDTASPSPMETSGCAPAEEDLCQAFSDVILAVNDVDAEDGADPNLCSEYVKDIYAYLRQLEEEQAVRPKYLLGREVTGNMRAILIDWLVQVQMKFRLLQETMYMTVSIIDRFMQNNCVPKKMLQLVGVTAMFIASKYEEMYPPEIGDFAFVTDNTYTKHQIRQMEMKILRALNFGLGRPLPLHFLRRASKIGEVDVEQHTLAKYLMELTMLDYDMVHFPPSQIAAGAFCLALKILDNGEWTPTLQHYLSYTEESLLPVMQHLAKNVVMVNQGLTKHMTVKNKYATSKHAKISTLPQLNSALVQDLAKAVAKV

Compound: Cc1nc(S)n(Nc2cccc3ccccc23)c1-c1ccccc1 [HER/NR818, 4-Methyl-1-(naphthalen-1-ylamino)-5-phenyl-1,3-dihydro-imidazole-2-thione]
- Activity (% of control) (P/CAF (H3 peptide)): 99 % of control
- Activity (% of control) (P/CAF (H4 peptide)): 103 % of control
- Activity (% of control) (CDK1/cyclinB): 88 % of control
- Activity (% of control) (CDK2/cyclinA): 87 % of control
- Activity (% of control) (CDK2/cyclinE): 101 % of control
- Activity (% of control) (CDK3/cyclinE): 103 % of control
- Activity (% of control) (CDK5/p25): 98 % of control
- Activity (% of control) (CDK5/p35): 92 % of control
- Activity (% of control) (CDK6/cyclinD3): 112 % of control
- Activity (% of control) (CDK7/cyclinH): 100 % of control
- Activity (% of control) (CDK9/cyclinT1): 100 % of control
- Activity (% of control) (CK1): 106 % of control
- Activity (% of control) (CK2): 99 % of control
- Activity (% of control) (JNK1α1): 114 % of control
- Activity (% of control) (JNK2α2): 100 % of control
- Activity (% of control) (MAPK1): 104 % of control
- Activity (% of control) (MAPK2): 105 % of control
- Activity (% of control) (PI 3-kinaseβ): 81 % of control
- Activity (% of control) (PI 3-kinaseγ): 96 % of control
- Activity (% of control) (PI 3-kinaseδ): 89 % of control
- Activity (% of control) (PKCζ): 98 % of control
- Activity (% of control) (eEF-2K): 101 % of control
- PBMC cell count, NAIM combined with IL-2 ([1]; IL-2 10 U/ml plus NAIM (NR818 2.5 μg/ml), stimulated and non stimulated cells, versus IL-2 only): enhanced
- PBMC cell viability, NAIM as such ([1]; NAIM alone, compared to control conditions): did not affect the cell viability
- basal hyperglycemia just prior to the glucose tolerance test ([2]; diabetic mice): significant reduction
- glucose disposal following glucose challenge ([2]; diabetic mice): significantly improved
- tissue penetrance in vivo ([2]; mice): high
